Data reported in ChEMBL document CHEMBL3739356, “Combination of 4-anilinoquinazoline, arylurea and tertiary amine moiety to discover novel anticancer agents” (Bioorg Med Chem, 2016).
Calls of active or inactive are those of the source. No cut-off for these calls is given here.

Experiments:
[1] = system: A-431; test: Antiproliferative activity against human A431 cells after 72 hrs by MTT assay; type: functional, cell-based; conditions: A-431, 72 h
[2] = system: A549; test: Antiproliferative activity against human A549 cells after 72 hrs by MTT assay; type: functional, cell-based; conditions: A549, 72 h
[3] = molecular target: Vascular endothelial growth factor receptor 2 (Homo sapiens, UniProt P35968); test: Inhibition of VEGFR-2 (unknown origin) assessed as ATP level by luminescence analysis
[4] = molecular target: Epidermal growth factor receptor (Homo sapiens, UniProt P00533); test: Inhibition of wild-type EGFR tyrosine kinase (unknown origin) assessed as ATP level by luminescence analysis
[5] = molecular target: Epidermal growth factor receptor (Homo sapiens, UniProt P00533, L858R); test: Inhibition of EGFR tyrosine kinase L858R mutant (unknown origin) assessed as ATP level by luminescence analysis; type: protein assay
[6] = system: Mus musculus; test: Toxicity in nude BALB/C mouse assessed as weight loss at 50 mg/kg, po qd for 12 days; type: organism-based; conditions: in vivo, 288 h
[7] = system: A549; test: Anticancer activity against human A549 cells xenografted in nude BALB/C mouse assessed as decrease in tumor volume at 50 mg/kg, po qd for 12 days; type: functional, organism-based

Vascular endothelial growth factor receptor 2, sequence (P35968 whole entry): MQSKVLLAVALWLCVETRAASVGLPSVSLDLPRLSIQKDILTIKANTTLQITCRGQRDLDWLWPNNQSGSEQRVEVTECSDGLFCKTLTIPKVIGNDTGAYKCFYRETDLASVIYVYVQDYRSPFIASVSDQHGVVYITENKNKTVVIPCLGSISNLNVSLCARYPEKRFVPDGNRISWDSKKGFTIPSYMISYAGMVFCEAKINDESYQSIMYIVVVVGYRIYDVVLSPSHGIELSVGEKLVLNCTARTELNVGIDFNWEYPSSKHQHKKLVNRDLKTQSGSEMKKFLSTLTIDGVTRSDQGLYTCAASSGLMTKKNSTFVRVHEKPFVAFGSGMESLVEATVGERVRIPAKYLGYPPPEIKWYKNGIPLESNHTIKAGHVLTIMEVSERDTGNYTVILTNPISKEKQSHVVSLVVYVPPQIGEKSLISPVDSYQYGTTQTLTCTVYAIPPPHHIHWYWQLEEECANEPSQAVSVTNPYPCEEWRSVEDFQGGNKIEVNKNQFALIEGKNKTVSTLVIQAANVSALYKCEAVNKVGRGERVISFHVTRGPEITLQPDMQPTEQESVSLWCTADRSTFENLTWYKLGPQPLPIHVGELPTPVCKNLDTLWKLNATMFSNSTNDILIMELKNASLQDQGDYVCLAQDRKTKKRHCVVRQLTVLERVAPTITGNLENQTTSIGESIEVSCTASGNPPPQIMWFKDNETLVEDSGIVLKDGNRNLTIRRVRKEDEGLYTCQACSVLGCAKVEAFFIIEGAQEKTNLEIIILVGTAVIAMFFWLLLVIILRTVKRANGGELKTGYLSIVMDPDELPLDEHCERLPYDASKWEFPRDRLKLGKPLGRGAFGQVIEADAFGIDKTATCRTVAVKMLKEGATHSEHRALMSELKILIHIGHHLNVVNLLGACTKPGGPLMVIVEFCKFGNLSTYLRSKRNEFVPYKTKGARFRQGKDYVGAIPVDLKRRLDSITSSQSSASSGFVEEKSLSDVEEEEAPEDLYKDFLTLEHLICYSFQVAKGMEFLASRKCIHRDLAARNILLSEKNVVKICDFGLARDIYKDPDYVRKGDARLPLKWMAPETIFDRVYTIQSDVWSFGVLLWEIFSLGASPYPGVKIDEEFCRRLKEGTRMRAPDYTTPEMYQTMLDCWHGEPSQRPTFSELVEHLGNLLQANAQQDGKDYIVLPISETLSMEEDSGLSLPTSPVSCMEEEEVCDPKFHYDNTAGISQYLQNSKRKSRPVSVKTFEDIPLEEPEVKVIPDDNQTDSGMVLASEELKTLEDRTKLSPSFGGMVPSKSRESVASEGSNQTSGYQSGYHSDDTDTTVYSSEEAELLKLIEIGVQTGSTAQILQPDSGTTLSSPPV
Epidermal growth factor receptor (Homo sapiens, UniProt P00533), sequence (P00533 whole entry): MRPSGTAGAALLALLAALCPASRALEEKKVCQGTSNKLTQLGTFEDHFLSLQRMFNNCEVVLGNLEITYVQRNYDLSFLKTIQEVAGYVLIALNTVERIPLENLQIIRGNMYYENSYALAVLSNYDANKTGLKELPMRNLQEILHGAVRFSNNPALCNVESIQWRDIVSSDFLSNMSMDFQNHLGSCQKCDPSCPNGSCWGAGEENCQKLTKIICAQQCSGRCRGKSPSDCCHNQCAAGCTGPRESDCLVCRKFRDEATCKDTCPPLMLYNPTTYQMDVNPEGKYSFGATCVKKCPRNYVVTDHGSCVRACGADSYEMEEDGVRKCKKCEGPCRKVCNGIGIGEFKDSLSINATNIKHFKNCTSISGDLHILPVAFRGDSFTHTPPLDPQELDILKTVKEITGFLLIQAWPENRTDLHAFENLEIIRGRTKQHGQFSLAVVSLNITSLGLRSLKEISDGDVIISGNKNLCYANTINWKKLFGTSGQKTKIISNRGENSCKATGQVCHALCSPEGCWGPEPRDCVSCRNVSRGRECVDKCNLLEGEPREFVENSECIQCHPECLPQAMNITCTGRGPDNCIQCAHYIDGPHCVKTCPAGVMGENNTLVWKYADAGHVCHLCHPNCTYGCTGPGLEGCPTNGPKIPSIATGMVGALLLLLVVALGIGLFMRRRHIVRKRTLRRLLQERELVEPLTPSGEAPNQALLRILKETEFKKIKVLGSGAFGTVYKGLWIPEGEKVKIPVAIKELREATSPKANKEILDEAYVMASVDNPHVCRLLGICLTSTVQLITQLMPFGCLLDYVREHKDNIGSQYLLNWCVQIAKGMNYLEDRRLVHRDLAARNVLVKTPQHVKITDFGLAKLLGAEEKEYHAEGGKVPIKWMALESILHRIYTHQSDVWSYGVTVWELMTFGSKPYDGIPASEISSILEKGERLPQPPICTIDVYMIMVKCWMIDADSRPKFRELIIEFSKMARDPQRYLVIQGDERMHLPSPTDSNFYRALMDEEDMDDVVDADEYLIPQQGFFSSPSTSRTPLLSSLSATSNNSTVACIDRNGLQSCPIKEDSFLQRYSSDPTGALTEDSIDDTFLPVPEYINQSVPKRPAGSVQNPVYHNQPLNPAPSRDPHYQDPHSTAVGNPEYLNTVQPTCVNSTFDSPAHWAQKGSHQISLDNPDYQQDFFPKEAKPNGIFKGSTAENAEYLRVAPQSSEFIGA
Epidermal growth factor receptor (Homo sapiens, UniProt P00533, L858R), sequence (P00533 25-1210 L858R limits assumed): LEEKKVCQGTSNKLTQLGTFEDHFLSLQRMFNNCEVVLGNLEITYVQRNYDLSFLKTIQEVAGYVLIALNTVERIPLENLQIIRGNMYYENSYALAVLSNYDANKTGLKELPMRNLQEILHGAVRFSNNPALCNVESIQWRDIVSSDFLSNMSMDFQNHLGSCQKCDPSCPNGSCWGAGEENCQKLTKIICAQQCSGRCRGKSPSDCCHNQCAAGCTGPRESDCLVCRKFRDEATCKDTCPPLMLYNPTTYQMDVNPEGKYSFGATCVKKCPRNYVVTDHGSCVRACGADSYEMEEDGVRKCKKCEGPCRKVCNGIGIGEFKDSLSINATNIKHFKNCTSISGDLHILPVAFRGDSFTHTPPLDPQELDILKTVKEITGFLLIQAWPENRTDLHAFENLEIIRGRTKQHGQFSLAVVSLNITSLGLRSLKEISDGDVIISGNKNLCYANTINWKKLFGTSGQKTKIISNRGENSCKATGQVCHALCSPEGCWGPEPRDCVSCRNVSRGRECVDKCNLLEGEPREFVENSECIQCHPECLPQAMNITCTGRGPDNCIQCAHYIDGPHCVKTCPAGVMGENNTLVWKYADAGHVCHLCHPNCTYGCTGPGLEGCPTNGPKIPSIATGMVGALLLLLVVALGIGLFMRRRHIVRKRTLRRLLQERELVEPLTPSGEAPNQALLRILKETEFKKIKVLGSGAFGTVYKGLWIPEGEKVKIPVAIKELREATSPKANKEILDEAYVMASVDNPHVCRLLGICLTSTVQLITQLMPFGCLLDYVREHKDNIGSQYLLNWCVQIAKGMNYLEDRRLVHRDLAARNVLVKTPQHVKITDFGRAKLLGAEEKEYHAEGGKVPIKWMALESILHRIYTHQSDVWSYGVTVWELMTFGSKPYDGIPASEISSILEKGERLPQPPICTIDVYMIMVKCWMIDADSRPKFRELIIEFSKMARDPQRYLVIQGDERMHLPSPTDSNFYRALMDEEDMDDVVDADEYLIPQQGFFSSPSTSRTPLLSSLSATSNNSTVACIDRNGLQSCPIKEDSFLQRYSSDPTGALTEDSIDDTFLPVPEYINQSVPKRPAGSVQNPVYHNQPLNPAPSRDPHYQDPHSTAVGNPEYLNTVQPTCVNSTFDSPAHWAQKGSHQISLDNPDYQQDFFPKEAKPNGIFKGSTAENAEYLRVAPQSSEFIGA

Row | SMILES | IC50 [1] [µM] | IC50 [2] [µM] | also measured
1 | C[C@@H](Nc1ncnc2ccc(NC(=O)Nc3ccc(CN4CCN(C)CC4)cc3)cc12)c1ccccc1 | > 10 | > 10 | 
2 | O=C(Nc1ccccc1)Nc1ccc2ncnc(Nc3cccc(C(F)(F)F)c3)c2c1 | > 10 | > 10 | 
3 | CN1CCN(Cc2ccc(NC(=O)Nc3ccc4ncnc(Nc5ccc(F)c(F)c5)c4c3)cc2)CC1 | > 10 | > 10 | 
4 | Cc1ccc(NC(=O)Nc2ccc3ncnc(Nc4cccc(C(F)(F)F)c4)c3c2)cc1 | > 10 | 4.14 | 
5 | O=C(Nc1ccc(CN2CCOCC2)cc1)Nc1ccc2ncnc(Nc3cccc(C(F)(F)F)c3)c2c1 | 8.49 | 4.03 | 
6 | CN1CCN(C(=O)c2ccc(NC(=O)Nc3ccc4ncnc(Nc5cccc(C(F)(F)F)c5)c4c3)cc2)CC1 | > 10 | 8.31 | 
7 | C[C@@H](Nc1ncnc2ccc(NC(=O)NCCN3CCN(C)CC3)cc12)c1ccccc1 | > 10 | > 10 | 
8 | CN1CCN(Cc2ccc(NC(=O)Nc3ccc4ncnc(Nc5cccc(C(=O)N6CCCC6)c5)c4c3)cc2)CC1 | > 10 | > 10 | 
9 | C#Cc1cccc(Nc2ncnc3ccc(NC(=O)Nc4ccc(C(=O)N5CCN(C)CC5)cc4)cc23)c1 | > 10 | > 10 | 
10 | C#Cc1cccc(Nc2ncnc3ccc(NC(=O)Nc4ccc(CN5CCOCC5)cc4)cc23)c1 | > 10 | > 10 | 
11 | CN1CCN(C(=O)c2ccc(NC(=O)Nc3ccc4ncnc(Nc5ccc(F)c(Cl)c5)c4c3)cc2)CC1 | > 10 | > 10 | 
12 | CCN(CC)c1ccc(NC(=O)Nc2ccc3ncnc(Nc4cccc(C(F)(F)F)c4)c3c2)cc1 | 6.46 | 3.52 | 
13 | COC(=O)c1cccc(Nc2ncnc3ccc(NC(=O)Nc4ccc(CN5CCN(C)CC5)cc4)cc23)c1 | 5.63 | > 10 | 
14 | CN1CCN(C(=O)c2ccc(NC(=O)Nc3ccc4ncnc(Nc5ccc(OCc6cccc(F)c6)c(Cl)c5)c4c3)cc2)CC1 | > 10 | 7.39 | 
15 | COc1cc2ncnc(Nc3ccc(F)c(Cl)c3)c2cc1OCCCN1CCOCC1 [GEFITINIB] |  |  | Activity [6]: Non-toxic; Activity [7]: Active
16 | O=C(Nc1ccc(C(=O)N2CCOCC2)cc1)Nc1ccc2ncnc(Nc3ccc(F)c(Cl)c3)c2c1 | > 10 | > 10 | 
17 | COc1ccc(NC(=O)Nc2ccc3ncnc(Nc4cccc(C(F)(F)F)c4)c3c2)cc1 | 4.95 | 9.47 | 
18 | CN1CCN(CCNC(=O)Nc2ccc3ncnc(Nc4cccc(C(F)(F)F)c4)c3c2)CC1 | > 10 | > 10 | 

Continued by falling IC50 [1], values first:

Row | IC50 [1] [µM] | IC50 [2] [µM] | SMILES | also measured
19 | 4 | 3.48 | CN1CCN(Cc2ccc(NC(=O)Nc3ccc4ncnc(Nc5ccc(F)c(Cl)c5)c4c3)cc2)CC1 | 
20 | 3.98 | 2.07 | CCN(CC)Cc1ccc(NC(=O)Nc2ccc3ncnc(Nc4cccc(C(F)(F)F)c4)c3c2)cc1 | 
21 | 2.81 | 5.17 | C#Cc1cccc(Nc2ncnc3ccc(NC(=O)Nc4ccc(CN5CCN(C)CC5)cc4)cc23)c1 | 
22 | 2.41 | 1.65 | CN1CCN(Cc2ccc(NC(=O)Nc3ccc4ncnc(Nc5cccc(C(F)(F)F)c5)c4c3)cc2)CC1 | 
23 | 2.2 | 2.76 | CN1CCN(c2ccc(NC(=O)Nc3ccc4ncnc(Nc5cccc(C(F)(F)F)c5)c4c3)cc2)CC1 | 
24 | 2.01 | 3.57 | COc1ccc(Nc2ncnc3ccc(NC(=O)Nc4ccc(CN5CCN(C)CC5)cc4)cc23)cc1Cl | 
25 | 1.55 | 1.05 | O=C(Nc1ccc(CN2CCCCC2)cc1)Nc1ccc2ncnc(Nc3cccc(C(F)(F)F)c3)c2c1 | IC50 [4]: 0.005 µM; IC50 [5]: 0.0105 µM
26 | 1.36 | 0.83 | O=C(Nc1ccc(CN2CCCC2)cc1)Nc1ccc2ncnc(Nc3cccc(C(F)(F)F)c3)c2c1 | Activity [6]: Non-toxic; IC50 [4]: 0.0041 µM; IC50 [5]: 0.0115 µM; Activity [7]: Active; IC50 [3]: 0.565 µM
27 | 1.33 | 1.06 | O=C(Nc1cccc(CN2CCCCC2)c1)Nc1ccc2ncnc(Nc3cccc(C(F)(F)F)c3)c2c1 | 
28 | 1.24 | 2.25 | C#Cc1cccc(Nc2ncnc3ccc(NC(=O)Nc4ccc(CN(CC)CC)cc4)cc23)c1 | 
29 | 1.23 | 0.86 | O=C(Nc1cccc(CN2CCCC2)c1)Nc1ccc2ncnc(Nc3cccc(C(F)(F)F)c3)c2c1 | 
30 | 1.03 | 1.12 | CN(C)Cc1ccc(NC(=O)Nc2ccc3ncnc(Nc4cccc(C(F)(F)F)c4)c3c2)cc1 | 
31 | 0.64 | 0.9 | CN1CCN(Cc2ccc(NC(=O)Nc3ccc4ncnc(Nc5ccc(OCc6cccc(F)c6)c(Cl)c5)c4c3)cc2)CC1 | IC50 [3]: > 1 µM
